{"source": "patent US8962844B2", "about": "“1,3,4-oxadiazole and 1,3,4-thiadiazole β-lactamase inhibitors” (priority 2012, dated 2015)", "note": "Where a name gives a salt, the structure may show the parent alone."}
{"system": "bacterial strains that express the class D cephalosporinase OXA-15", "test": "Standard BLI potentiation MIC / synergy MIC (sMIC) assays run in the presence of a β-lactam, OXA-15 expressing strains", "assay_type": "cell-based, E. coli", "conditions": "BLI in combination with a β-lactam; comparison with Avibactam (comparator compound CCC)", "excerpt": "Unless otherwise indicated, the activity of the BLI compounds can be described by the MIC value obtained from a Synergy MIC assay or a BLI potentiation assay (e.g as described herein), both of which are run in the presence of a β-lactam.\nA set of β-lactamase expressing isogenic E. coli strains was constructed by cloning a β-lactamase gene into a customized derivative of pBR322 (GenBank Accession Number J01749) and transforming the engineered plasmids into E. coli. The NdeI restriction site within the plasmid backbone of pBR322 was removed to generate pBR322 ΔNdeI. The pBR322 ΔNdeI vector itself, minus the blaTEM-1 gene, was amplified using two primers: (1) pBR-Pbla 5′-cgcatatgactettectttttcaatattattg-3, SEQ ID 1, a primer with an engineered NdeI restriction site at the 3′ end of the blaTEM-1 promoter and (2) pBR-vec-1 5′-[…]-3′, SEQ ID 2, a primer with an engineered BamHI restriction site at the 3′ end of the blaTEM-1 open reading frame. The chloramphenicol resistance gene, cat, was generated by PCR amplification from pKD3 (GenBank Accession Number AY048742) using primers with an engineered NdeI restriction site at the 5′ end (Pbla-cat 5′-[…]-3′, SEQ ID 3) and an engineered BamHI restriction site at the 3′ end (Vec-1-cat 5′-[…]-3′, SEQ ID 4) of the resistance gene. The two PCR products, pBR322 ΔNdeI and cat were ligated together generating pBR-CBST (pBR322 ΔNdeI ΔTEM-1::cat Seq. ID 5) which retains both the pBR322 tetracycline resistance cassette, tetA, and the plasmid origin of replication but the blaTEM-1 gene was replaced by the cat gene.\nUsing this engineering strategy a number of plasmids producing β-lactamase genes from different classes (see below) were generated using synthetic genes with an engineered NdeI restriction site at the 5′ end and BamHI restriction site at the 3′ end of each gene (GenScript). Both the synthetic β-lactamase genes and cat gene were ligated into the NdeI/BamHI sites of the pBR322 ΔNdeI PCR product and transformed into electrocompetent E. coli ElectroMax DH10B (Invitrogen/Life Technologies). E. coli DH10B harboring the recombinant plasmids were selected on LB agar (supplemented with 25 μg/mL tetracycline) and single isolated colonies were then inoculated into 5 mL LB media (supplemented with 25 μg/mL tetracycline), and incubated at 37° C. with aeration (250 rpm) for 18 hrs. The cultures were frozen back at −80° C. in 20% glycerol. The DNA sequence of the cloned β-lactamase genes was confirmed. The β-lactamase gene expression in the recombinant E. coli strains was driven by the blaTEM-1 promoter in the pBR-CBST plasmid and was characterized by MIC profiling of the E. coli recombinant strains against comparator β-lactam/BLI combinations in broth microdilution assay.\nThe experimental protocol was performed according to Clinical and Laboratory Standards Institute (CLSI) guidelines with modifications as described below (CLSI guidelines can be derived from the CLSI document M07-A9 published in January 2012: “Methods for Dilution Antimicrobial Susceptibility Tests for Bacteria That Grow Aerobically; Approved Standard-Ninth Edition”).\nTo prepare for MIC testing, frozen glycerol stocks of clinical isolates (Klebsiella pneumoniae, Eschericia coli, Enterobacter spp, Citrobacter spp, or Pseudomonas aeruginosa) were used to streak for isolated colonies on rich, non-selective, tryptic soy agar containing 5% sheep's blood (TSAB). Frozen glycerol stocks of laboratory engineered, isogenic E. coli strains, which contain cloned β-lactamase expressing plasmids were used to streak for isolated colonies on rich, selective LB agar supplemented with 25 μg/mL tetracycline to maintain the plasmid. All strains were incubated at 37° C. for 18-24 hrs.\nOn the day of testing, primary cultures were started by scraping off 5-10 colonies from the TSAB plates containing clinical strains or the tetracycline supplemented LB plates containing engineered strains. […]"}
{"smiles": "N=C(N)NCc1nnc([C@@H]2CC[C@@H]3CN2C(=O)N3OS(=O)(=O)O)o1", "note": "[Compound 704, (2S,5R)-2-(5-(guanidinomethyl)-1,3,4-oxadiazol-2-yl)-7-oxo-1,6-diazabicyclo[3.2.1]octan-6-yl hydrogen sulfate]", "activity against bacterial strains that express the class D cephalosporinase OXA-15, compared with Avibactam": "more active than Avibactam"}
{"smiles": "Nc1nnc([C@@H]2CC[C@@H]3CN2C(=O)N3OS(=O)(=O)O)o1", "note": "[Compound 707, (2S,5R)-2-(5-amino-1,3,4-oxadiazol-2-yl)-7-oxo-1,6-diazabicyclo[3.2.1]octan-6-yl hydrogen sulfate]", "activity against bacterial strains that express the class D cephalosporinase OXA-15, compared with Avibactam": "more active than Avibactam"}
{"smiles": "N=C(N)N1CCC(c2nnc([C@@H]3CC[C@@H]4CN3C(=O)N4OS(=O)(=O)O)o2)CC1", "note": "[Compound 712, (2S,5R)-2-(5-(1-carbamimidoylpiperidin-4-yl)-1,3,4-oxadiazol-2-yl)-7-oxo-1,6-diazabicyclo[3.2.1]octan-6-yl hydrogen sulfate]", "activity against bacterial strains that express the class D cephalosporinase OXA-15, compared with Avibactam": "more active than Avibactam"}
{"smiles": "O=C1N2C[C@@H](CC[C@H]2c2nnc(N3CCNCC3)o2)N1OS(=O)(=O)O", "note": "[Compound 713, (2S,5R)-7-oxo-2-(5-(piperazin-1-yl)-1,3,4-oxadiazol-2-yl)-1,6-diazabicyclo[3.2.1]octan-6-yl hydrogen sulfate]", "activity against bacterial strains that express the class D cephalosporinase OXA-15, compared with Avibactam": "more active than Avibactam"}
{"smiles": "N=C(N)NCCCc1nnc([C@@H]2CC[C@@H]3CN2C(=O)N3OS(=O)(=O)O)o1", "note": "[Compound 714, (2S,5R)-2-(5-(3-guanidinopropyl)-1,3,4-oxadiazol-2-yl)-7-oxo-1,6-diazabicyclo[3.2.1]octan-6-yl hydrogen sulfate]", "activity against bacterial strains that express the class D cephalosporinase OXA-15, compared with Avibactam": "more active than Avibactam"}
{"smiles": "NCC(O)c1nnc([C@@H]2CC[C@@H]3CN2C(=O)N3OS(=O)(=O)O)o1", "note": "(stereo partly drawn) [Compound 715, (2S,5R)-2-(5-(2-amino-1-hydroxyethyl)-1,3,4-oxadiazol-2-yl)-7-oxo-1,6-diazabicyclo[3.2.1]octan-6-yl hydrogen sulfate]", "activity against bacterial strains that express the class D cephalosporinase OXA-15, compared with Avibactam": "more active than Avibactam"}
{"smiles": "NCCNCCc1nnc([C@@H]2CC[C@@H]3CN2C(=O)N3OS(=O)(=O)O)o1", "note": "[Compound 716, (2S,5R)-2-(5-(2-((2-aminoethyl)amino)ethyl)-1,3,4-oxadiazol-2-yl)-7-oxo-1,6-diazabicyclo[3.2.1]octan-6-yl hydrogen sulfate]", "activity against bacterial strains that express the class D cephalosporinase OXA-15, compared with Avibactam": "more active than Avibactam"}
{"smiles": "NCC(N)c1nnc([C@@H]2CC[C@@H]3CN2C(=O)N3OS(=O)(=O)O)o1", "note": "(stereo partly drawn) [Compound 717, (2S,5R)-2-(5-(1,2-diaminoethyl)-1,3,4-oxadiazol-2-yl)-7-oxo-1,6-diazabicyclo[3.2.1]octan-6-yl hydrogen sulfate]", "activity against bacterial strains that express the class D cephalosporinase OXA-15, compared with Avibactam": "more active than Avibactam"}
{"smiles": "O=C1N2C[C@@H](CC[C@H]2c2nnc(C3CCNCC3)s2)N1OS(=O)(=O)O", "note": "[Compound 719, (2S,5R)-7-oxo-2-(5-(piperidin-4-yl)-1,3,4-thiadiazol-2-yl)-1,6-diazabicyclo[3.2.1]octan-6-yl hydrogen sulfate]", "activity against bacterial strains that express the class D cephalosporinase OXA-15, compared with Avibactam": "more active than Avibactam"}
{"smiles": "O=C1N2C[C@@H](CC[C@H]2c2nnc(CC3CNC3)o2)N1OS(=O)(=O)O", "note": "[Compound 725, (2S,5R)-2-(5-(azetidin-3-ylmethyl)-1,3,4-oxadiazol-2-yl)-7-oxo-1,6-diazabicyclo[3.2.1]octan-6-yl hydrogen sulfate]", "activity against bacterial strains that express the class D cephalosporinase OXA-15, compared with Avibactam": "more active than Avibactam"}
{"smiles": "NCC(O)Cc1nnc([C@@H]2CC[C@@H]3CN2C(=O)N3OS(=O)(=O)O)o1", "note": "(stereo partly drawn) [Compound 733, (2S,5R)-2-(5-(3-amino-2-hydroxypropyl)-1,3,4-oxadiazol-2-yl)-7-oxo-1,6-diazabicyclo[3.2.1]octan-6-yl hydrogen sulfate]", "activity against bacterial strains that express the class D cephalosporinase OXA-15, compared with Avibactam": "more active than Avibactam"}
{"smiles": "N=C(N)N[C@H]1C[C@H](c2nnc([C@@H]3CC[C@@H]4CN3C(=O)N4OS(=O)(=O)O)o2)C1", "note": "[Compound 748, (2S,5R)-2-(5-((1r,3S)-3-guanidinocyclobutyl)-1,3,4-oxadiazol-2-yl)-7-oxo-1,6-diazabicyclo[3.2.1]octan-6-yl hydrogen sulfate]", "activity against bacterial strains that express the class D cephalosporinase OXA-15, compared with Avibactam": "more active than Avibactam"}
{"smiles": "N[C@H]1C[C@H](NCc2nnc([C@@H]3CC[C@@H]4CN3C(=O)N4OS(=O)(=O)O)o2)C1", "note": "[Compound 757, (2S,5R)-2-(5-((((1r,3S)-3-aminocyclobutyl)amino)methyl)-1,3,4-oxadiazol-2-yl)-7-oxo-1,6-diazabicyclo[3.2.1]octan-6-yl hydrogen sulfate]", "activity against bacterial strains that express the class D cephalosporinase OXA-15, compared with Avibactam": "more active than Avibactam"}
{"smiles": "O=C1N2C[C@@H](CC[C@H]2c2nnc(CNC3CCNCC3)o2)N1OS(=O)(=O)O", "note": "[Compound 769, (2S,5R)-7-oxo-2-(5-((piperidin-4-ylamino)methyl)-1,3,4-oxadiazol-2-yl)-1,6-diazabicyclo[3.2.1]octan-6-yl hydrogen sulfate]", "activity against bacterial strains that express the class D cephalosporinase OXA-15, compared with Avibactam": "more active than Avibactam"}
{"smiles": "NC1CCN(c2nnc([C@@H]3CC[C@@H]4CN3C(=O)N4OS(=O)(=O)O)o2)CC1", "note": "[Compound 773, (2S,5R)-2-(5-(4-aminopiperidin-1-yl)-1,3,4-oxadiazol-2-yl)-7-oxo-1,6-diazabicyclo[3.2.1]octan-6-yl hydrogen sulfate]", "activity against bacterial strains that express the class D cephalosporinase OXA-15, compared with Avibactam": "more active than Avibactam"}
{"smiles": "O=C1N2C[C@@H](CC[C@H]2c2nnc([C@@H]3CNCCN3)o2)N1OS(=O)(=O)O", "note": "[Compound 778, (2S,5R)-7-oxo-2-(5-((S)-piperazin-2-yl)-1,3,4-oxadiazol-2-yl)-1,6-diazabicyclo[3.2.1]octan-6-yl hydrogen sulfate]", "activity against bacterial strains that express the class D cephalosporinase OXA-15, compared with Avibactam": "more active than Avibactam"}
{"smiles": "N[C@H]1CC[C@@H](c2nnc([C@@H]3CC[C@@H]4CN3C(=O)N4OS(=O)(=O)O)o2)CC1", "note": "[Compound 780, (2S,5R)-2-(5-((1s,4R)-4-aminocyclohexyl)-1,3,4-oxadiazol-2-yl)-7-oxo-1,6-diazabicyclo[3.2.1]octan-6-yl hydrogen sulfate]", "activity against bacterial strains that express the class D cephalosporinase OXA-15, compared with Avibactam": "more active than Avibactam"}
{"smiles": "N[C@H]1CC[C@H](c2nnc([C@@H]3CC[C@@H]4CN3C(=O)N4OS(=O)(=O)O)o2)CC1", "note": "[Compound 781, (2S,5R)-2-(5-((1r,4S)-4-aminocyclohexyl)-1,3,4-oxadiazol-2-yl)-7-oxo-1,6-diazabicyclo[3.2.1]octan-6-yl hydrogen sulfate]", "activity against bacterial strains that express the class D cephalosporinase OXA-15, compared with Avibactam": "more active than Avibactam"}
{"smiles": "O=C1N2C[C@@H](CC[C@H]2c2nnc(CCCN3CCNCC3)o2)N1OS(=O)(=O)O", "note": "[Compound 792, (2S,5R)-7-oxo-2-(5-(3-(piperazin-1-yl)propyl)-1,3,4-oxadiazol-2-yl)-1,6-diazabicyclo[3.2.1]octan-6-yl hydrogen sulfate]", "activity against bacterial strains that express the class D cephalosporinase OXA-15, compared with Avibactam": "more active than Avibactam"}
